Data: patent US9101769B2, “High density epidural stimulation for facilitation of locomotion, posture, voluntary movement, and recovery of autonomic, sexual, vasomotor, and cognitive function after neurological injury” (The Regents of the University of California, priority 2011, dated 2015)

Columns and labels:
stepping in animals = experiment: Pharmacological facilitation of stepping, optimal concentration of illustrative agents (Table 1); type: in vivo
Protocol: In certain embodiments, the methods described herein are used in conjunction with various pharmacological agents. […] These agents can be used in combination with epidural stimulation and physical therapy as described above.
In certain embodiments, the drugs are administered systemically, while in other embodiments, the drugs are administered locally, e.g., to particular regions of the spinal cord. Drugs that modulate the excitability of the spinal neuromotor networks are combinations of noradrenergic, serotonergic, GABAergic, and glycinergic receptor agonists and antagonists. Illustrative pharmacological agents include, but are not limited to agonists and antagonists to one or more combinations of serotonergic: 5-HT1A, 5-HT2A, 5-HT3, and 5HT7 receptors; to noradrenergic alpha1 and 2 receptors; and to dopaminergic D1 and D2 receptors (see, e.g., Table 1).

[1] = tested on: rat with complete mid-thoracic spinal cord transection; experiment: Epidural stimulation coupled with drug therapy, locomotor behavior after complete spinal cord transection (FIG. 1); type: in vivo
Protocol: FIG. 1 summarizes recent experiments in rats that were carried out to assess the effectiveness of epidural stimulation coupled with combined drug therapy in the treatment of complete spinal cord injuries. The combination of quipazine and 8-0HDPAT with simultaneous epidural stimulation at spinal sites L2 and S1 results in robust coordinated stepping as early as one week after a complete spinal cord transection. Locomotor behavior observed from a typical rat before the injury and one week after a complete mid-thoracic spinal cord transection. The amount of body weight support provided to the rat is shown in red. One week post-injury, no spontaneous stepping activity is observed. […] Sol, soleus; TA, tibialis anterior; MTP, metatarsal-phalangeal.
FIG. 1 summarizes experiments in rats that were carried out to assess the effectiveness of epidural stimulation coupled with combined drug therapy in acute treatment of complete spinal cord injury.

[2] = one week after complete mid-thoracic spinal cord transection, drug administration without epidural stimulation
[3] = one week post-injury, epidural stimulation at L2 plus S1 with quipazine plus 8-OHDPAT together
[4] = one week post-injury, epidural stimulation simultaneously at L2 plus S1 in combination with either quipazine or 8-OHDPAT

CCCN(CCC)C1CCc2cccc(O)c2C1 (stereo not drawn) [8-OHDPAT]
Optimal Concentration (stepping in animals; route S.C.): 0.05 mg/kg | Locomotor behavior (stepping) [1, 2]: erratic movements | Locomotor behavior (stepping) [1, 3]: coordinated, plantar stepping with features resembling those observed pre-lesion | Locomotor behavior (stepping) [1, 4]: enables plantar stepping

Cc1nccn1CC1CCc2c(c3ccccc3n2C)C1=O (stereo not drawn) [Ondanesetron]
Optimal Concentration (stepping in animals; route I.P.): 3 mg/kg

c1ccc2nc(N3CCNCC3)ccc2c1 [Quipazine]
Locomotor behavior (stepping) [1, 2]: erratic movements | Locomotor behavior (stepping) [1, 3]: coordinated, plantar stepping with features resembling those observed pre-lesion | Locomotor behavior (stepping) [1, 4]: enables plantar stepping

CC1CCN(CC[C@H]2CCCN2S(=O)(=O)c2cccc(O)c2)CC1 [SB 269970]
Optimal Concentration (stepping in animals; route I.P.): 7 mg/kg

Oc1cc2c(c(Cl)c1O)CCNCC2c1ccccc1 (stereo not drawn) [SKF-81297]
Optimal Concentration (stepping in animals; route I.P.): 0.2 mg/kg

Cl.NC1CCN(c2cccc(Cl)n2)CC1 [SR 57227A]
Optimal Concentration (stepping in animals; route I.P.): 1.5 mg/kg

COc1ccccc1N1CCN(CCN(C(=O)C2CCCCC2)c2ccccn2)CC1 [Way 100.635]
Optimal Concentration (stepping in animals; route I.P.): 0.5 mg/kg
